The target in assay [1] is CDK8/Cyclin C (Homo sapiens) (UniProt P49336+P24863). As to the kind of experiment: Binding affinity to CDK8/CycC (unknown origin) assessed as residence time. In kind it is protein-complex assay.
The target of assay [2] is T1, Fatty-acid amide hydrolase 1 (Homo sapiens) (UniProt O00519).
T1 sequence (whole entry): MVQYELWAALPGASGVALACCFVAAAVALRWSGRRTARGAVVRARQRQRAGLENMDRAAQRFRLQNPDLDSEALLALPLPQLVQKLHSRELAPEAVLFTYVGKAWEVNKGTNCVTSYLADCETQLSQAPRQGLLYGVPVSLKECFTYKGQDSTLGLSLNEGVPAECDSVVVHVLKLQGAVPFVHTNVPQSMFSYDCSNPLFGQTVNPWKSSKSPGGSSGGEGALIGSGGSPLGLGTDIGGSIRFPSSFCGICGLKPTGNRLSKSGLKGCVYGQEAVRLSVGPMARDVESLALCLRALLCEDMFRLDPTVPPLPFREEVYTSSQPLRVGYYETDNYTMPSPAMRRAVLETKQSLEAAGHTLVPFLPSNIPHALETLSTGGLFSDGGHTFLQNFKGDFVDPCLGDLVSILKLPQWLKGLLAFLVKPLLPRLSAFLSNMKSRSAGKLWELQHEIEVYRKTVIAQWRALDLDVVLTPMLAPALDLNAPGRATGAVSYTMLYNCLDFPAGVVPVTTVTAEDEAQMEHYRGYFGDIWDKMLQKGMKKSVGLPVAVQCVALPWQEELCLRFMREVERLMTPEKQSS
Put plainly: Inhibition of recombinant human FAAH assessed as dissociation half life.

In assay [3] the target is Histone-lysine N-methyltransferase EZH2 (Homo sapiens) (UniProt Q15910). Put plainly: Binding affinity to EZH2 (unknown origin) assessed as residence time.

Each structure is given as a SMILES string.

Chain of Histone-lysine N-methyltransferase EZH2 (Homo sapiens) (Q15910 whole entry, looked up): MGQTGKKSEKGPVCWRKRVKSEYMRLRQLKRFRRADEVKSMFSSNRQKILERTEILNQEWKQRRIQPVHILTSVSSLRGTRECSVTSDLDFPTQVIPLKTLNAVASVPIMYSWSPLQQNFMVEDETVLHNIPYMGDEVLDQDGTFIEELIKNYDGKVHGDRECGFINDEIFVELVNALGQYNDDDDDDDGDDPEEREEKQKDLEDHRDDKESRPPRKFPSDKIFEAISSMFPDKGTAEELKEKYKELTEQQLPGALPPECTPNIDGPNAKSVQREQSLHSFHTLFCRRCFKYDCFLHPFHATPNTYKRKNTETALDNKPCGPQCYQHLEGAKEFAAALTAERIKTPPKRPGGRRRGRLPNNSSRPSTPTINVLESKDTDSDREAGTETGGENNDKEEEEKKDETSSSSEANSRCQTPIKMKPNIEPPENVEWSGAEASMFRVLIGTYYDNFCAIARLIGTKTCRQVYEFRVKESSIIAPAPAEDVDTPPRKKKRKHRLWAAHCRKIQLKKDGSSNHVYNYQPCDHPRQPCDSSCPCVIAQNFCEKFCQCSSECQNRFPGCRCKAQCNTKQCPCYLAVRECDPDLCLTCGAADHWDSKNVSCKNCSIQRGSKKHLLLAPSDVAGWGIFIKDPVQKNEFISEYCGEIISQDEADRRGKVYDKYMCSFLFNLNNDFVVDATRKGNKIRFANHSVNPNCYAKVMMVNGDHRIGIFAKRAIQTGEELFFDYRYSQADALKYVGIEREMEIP

With `Cc1ccc(-n2nc(C(C)(C)C)cc2NC(=O)NCCN2CCOCC2)cc1`, the TIME in assay [1] is less than 0.0233 h.

With `O=C(CCCCCCc1ccccc1)c1nc2ncccc2o1`, in assay [2], the T1/2 is more than 10 h.

As for `Cc1ccc(-n2nc(C(C)(C)C)cc2NC(=O)NCCN2CCN(C(=O)Nc3cc(C(C)(C)C)nn3-c3ccc(C)cc3)CC2)cc1`, in assay [1], the TIME was determined as 27.1 h.

Regarding `Cc1ccc(CNC(=O)c2cc(-c3ccnc(N4CCN(C)CC4)c3)cc3c2ccn3C(C)C)c(=O)[nH]1`, the TIME in assay [3] was determined as 1.03 h.

As for `O=C(CCCCCCc1ccccc1)c1ncc(-c2ccccn2)o1`, in assay [2], the T1/2 was more than 10 h.

Turning to `CCCc1cc(C)[nH]c(=O)c1CNC(=O)c1cc(-c2ccnc(N3CCN(C)CC3)c2)cc2c1ccn2C(C)C`, in assay [3], the TIME is 0.717 h.

The values above are taken from ChEMBL document CHEMBL3400049, “Design strategies to address kinetics of drug binding and residence time” (Bioorg Med Chem Lett, 2015).
